Test results taken from patent US11312719B2, “9-substituted amino triazolo quinazoline derivatives as adenosine receptor antagonists, pharmaceutical compositions and their use” (Merck Sharp & Dohme Corp., priority 2018, dated 2022).

Tests used:
[1] = biological target: human A2a adenosine receptor (Homo sapiens (Human), UniProt P29274); test: A2a receptor affinity radioligand binding assay ([3H] SCH58261); conditions: for IC50: membranes from HEK293 or CHO cells expressing human A2a receptor
Experimental: The A2a receptor affinity binding assay measured the amount of binding of a tritiated ligand with high affinity for the A2a adenosine receptor to membranes made from HEK293 or CHO cells recombinantly expressing the human A2a adenosine receptor, in the presence of varying concentrations of a compound of the invention.
Measurement of A2a Binding Affinity Using Radioligand Binding
148 μL (5 μg/mL) membranes (Perkin Elmer, Cat. No. RBHA2aM400UA) and 2 μL compounds of the invention to be tested (test compound) were transferred to individual wells of a 96-well polypropylene assay plate and incubated for 15 to 30 minutes at room temperature. [^3H] SCH58261 ((7-(2-phenylethyl)-5-amino-2-(2-furyl)-pyrazolo-[4,3-e]-1,2,4-triazolo[1,5-c]pyrimidine)) was diluted in assay buffer (50 mM Tris pH 7.4, 10 mM MgCl2, 0.005% Tween20) to a concentration of 4 nM and 50 μL transferred to each well of the assay plate. To define total and non-specific binding, wells containing 1% DMSO and 1 μM ZM241385 (Tocris Bioscience, Cat. No. 1036) respectively, were also included. The assay plate was incubated at room temperature for 60 minutes with agitation. Using a FilterMate Harvester® (Perkin Elmer), the contents of the assay plate were filtered through a UniFilter-96® PEI coated plate (Perkin Elmer Cat. No. 6005274 or 6005277). Filtering was achieved by aspirating the contents of the assay plate for 5 seconds, then washing and aspirating the contents three times with ice-cooled wash buffer (50 mM Tris-HCl pH 7.4, 150 mM NaCl) and allowing the vacuum manifold to dry the plate for 30 seconds. The filter plate was incubated for at least 1 hour at 55° C., and allowed to dry. The bottom of the filter plate was sealed with backing tape. 40 μL Ultima Gold™ (Perkin Elmer, Cat. No. 6013329) was added to each well of the filter plate and the top of the plate was sealed with TopSeal-A PLUS® clear plate seal (Perkin Elmer, Cat. No. 6050185). The plate was incubated for at least 20 minutes, and then the amount of radioactivity remaining in each well was determined using a TopCount® (Perkin Elmer) scintillation counter. After normalization to total and non-specific binding, the percent effect at each compound concentration was calculated. The plot of percent effect versus the log of compound concentration was analyzed electronically using a 4-parameter logistic fit based on the Levenberg-Marquardt algorithm to generate IC50 values.

[2] = biological target: human A2b adenosine receptor (Homo sapiens (Human), UniProt P29275); test: A2b radioligand filtration binding assay; conditions: for IC50: membranes from HEK293 cells expressing human A2b receptor
Sequence of human A2b adenosine receptor (P29275 whole entry): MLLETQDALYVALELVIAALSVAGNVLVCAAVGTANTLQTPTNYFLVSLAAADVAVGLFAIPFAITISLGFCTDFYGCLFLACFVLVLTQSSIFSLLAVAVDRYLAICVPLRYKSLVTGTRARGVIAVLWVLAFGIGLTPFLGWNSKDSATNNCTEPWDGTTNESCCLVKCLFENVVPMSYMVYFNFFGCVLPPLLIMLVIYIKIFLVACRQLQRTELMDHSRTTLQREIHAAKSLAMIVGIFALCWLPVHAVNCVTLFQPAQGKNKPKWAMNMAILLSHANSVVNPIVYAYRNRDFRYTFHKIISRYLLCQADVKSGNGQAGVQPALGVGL
Experimental: Measurement of A2b Binding Affinity
The reported affinity of the compounds of the invention for the human A2b adenosine receptor was determined experimentally using a radioligand filtration binding assay. This assay measures the amount of binding of a tritiated proprietary A2b receptor antagonist, in the presence and absence of a compound of the invention, to membranes made from HEK293 cells recombinantly expressing the human A2b adenosine receptor (Perkin Elmer, Cat. No. ES-013-C).
148 μL (135 μg/mL) membranes and 2 μL test compounds were transferred to individual wells of a 96-well polypropylene assay plate and incubated for 15 to 30 minutes at room temperature with agitation. Tritiated radioligand was diluted to a concentration of 14 nM in assay buffer (phosphate buffered saline without Magnesium and Calcium, pH 7.4; GE Healthcare Life Sciences, Cat. No. SH30256.01) and then 50 μL of the solution were transferred to each well of the assay plate. To define total and non-specific binding, wells containing 1% DMSO and 20 μM N-ethylcarboxamidoadenosine (Tocris Bioscience, Cat. No. 1691) respectively, were also included. The wells of the assay plate were incubated at room temperature for 60 minutes with agitation, then filtered using a FilterMate Harvester® (Perkin Elmer) or similar equipment through a UniFilter-96® PEI coated plate (Perkin Elmer Cat. No. 6005274 or 6005277). Filtering was achieved by aspirating the contents of the assay plate for 5 seconds, then washing and aspirating the contents three times with ice-cooled wash buffer (assay buffer supplemented with 0.0025% Brij58) and allowing the vacuum manifold to dry the plate for 30 seconds. The filter plate was incubated for at least 1 hour at 55° C. and allowed to dry. The bottom of the filter plate was then sealed with backing tape. 40 μL Ultima Gold™ (Perkin Elmer, Cat. No. 6013329) was added to each well of the filter plate and the top of the plate was sealed with TopSeal-A PLUS® clear plate seal (Perkin Elmer, Cat. No. 6050185). The plates were then incubated for at least 20 minutes, and then the amount of radioactivity remaining in each well was determined using a TopCount® (Perkin Elmer) scintillation counter. After normalization to total and non-specific binding, the percent effect at each compound concentration was calculated. The plot of percent effect versus the log of compound concentration was analyzed electronically using a 4-parameter logistic fit based on the Levenberg-Marquardt algorithm to generate IC50 values.

Sequence of human A2a adenosine receptor (P29274 whole entry): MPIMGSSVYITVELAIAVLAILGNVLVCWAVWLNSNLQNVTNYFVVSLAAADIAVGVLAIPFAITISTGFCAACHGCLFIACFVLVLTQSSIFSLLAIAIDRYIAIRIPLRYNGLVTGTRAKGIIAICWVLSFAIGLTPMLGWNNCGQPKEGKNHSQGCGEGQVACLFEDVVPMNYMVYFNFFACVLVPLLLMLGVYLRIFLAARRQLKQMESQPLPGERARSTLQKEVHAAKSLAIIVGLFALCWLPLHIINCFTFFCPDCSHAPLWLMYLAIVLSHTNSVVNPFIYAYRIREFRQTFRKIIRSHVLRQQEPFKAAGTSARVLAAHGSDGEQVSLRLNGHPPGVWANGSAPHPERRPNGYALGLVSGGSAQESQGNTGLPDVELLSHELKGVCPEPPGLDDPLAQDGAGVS

Row | SMILES | IC50 [1] | IC50 [2] | A2A binding % Inh. @ 1000 nM ([1]; @ 1000 nM) | A2B binding % Inh. @ 10000 nM [2]
1 | COc1cc2nc(N)n3nc(C45CC4CN(c4cnn(CC(C)(C)O)c4)C5)nc3c2cc1F (single isomer, unassigned) [Example 58, 1-(4-((1R,5R or 1S,5S)-1-(5-amino-9-fluoro-8-methoxy-[1,2,4]triazolo[1,5-c]quinazolin-2-yl)-3-azabicyclo[3.1.0]hexan-3-yl)-1H-pyrazol-1-yl)-2-methylpropan-2-ol] | 13.6 nM | 136 nM |  | 
2 | COc1cc2nc(N)n3nc(C4CCCCN(c5cnn(CC(C)(C)O)c5)C4)nc3c2cc1F (single isomer, unassigned) [Example 60, (R or S)-1-(4-(3-(5-amino-9-fluoro-8-methoxy-[1,2,4]triazolo[1,5-c]quinazolin-2-yl)azepan-1-yl)-1H-pyrazol-1-yl)-2-methylpropan-2-ol] | 31.4 nM | 5860 nM |  | 
3 | COc1cc2nc(N)n3nc(C4CCCCN(c5cnn(CC(C)(C)O)c5)C4)nc3c2cc1F (single isomer, unassigned) [Example 61, (S or R)-1-(4-(3-(5-amino-9-fluoro-8-methoxy-[1,2,4]triazolo[1,5-c]quinazolin-2-yl)azepan-1-yl)-1H-pyrazol-1-yl)-2-methylpropan-2-ol] | 5 nM | 99 nM |  | 
4 | COc1cc2nc(N)n3nc(C4(F)CCN(c5cnn(CC(C)(C)O)c5)C4)nc3c2cc1F (single isomer, unassigned) [Example 62, (R or S)-1-(4-(3-(5-amino-9-fluoro-8-methoxy-[1,2,4]triazolo[1,5-c]quinazolin-2-yl)-3-fluoropyrrolidin-1-yl)-1H-pyrazol-1-yl)-2-methylpropan-2-ol] | 146 nM | 383 nM |  | 
5 | COc1cc2nc(N)n3nc(C4(F)CCN(c5cnn(CC(C)(C)O)c5)C4)nc3c2cc1F (single isomer, unassigned) [Example 63, (S or R)-1-(4-(3-(5-amino-9-fluoro-8-methoxy-[1,2,4]triazolo[1,5-c]quinazolin-2-yl)-3-fluoropyrrolidin-1-yl)-1H-pyrazol-1-yl)-2-methylpropan-2-ol] | 242 nM | 2430 nM |  | 
6 | COc1cc2nc(N)n3nc(C4CN(c5cnn(CC(C)(C)O)c5)CCC4C)nc3c2cc1F (single isomer, unassigned) [Example 67, 1-(4-((3R or 3S,4R or 4S)-3-(5-amino-9-fluoro-8-methoxy-[1,2,4]methylpiperidin-1-yl)-1H-pyrazol-1-yl)-2-methylpropan-2-ol] |  |  | 44% Inh. | 31% Inh.
7 | COc1cc(F)cc2c1nc(N)n1nc([C@@H]3C[C@H](F)CN(c4cnn(CC(C)(C)O)c4)C3)nc21 (single isomer, unassigned) [Example 68, 1-(4-((3R,5S or 3S,5R)-3-(5-amino-9-fluoro-7-methoxy-[1,2,4]triazolo[1,5-c]quinazolin-2-yl)-5-fluoropiperidin-1-yl)-1H-pyrazol-1-yl)-2-methylpropan-2-ol] | 181 nM |  |  | 31% Inh.
8 | COc1cc(F)cc2c1nc(N)n1nc(C3CC(F)CN(c4cn(CC(C)(C)O)nc4C)C3)nc21 (single isomer, unassigned) [Example 71, 1-(4-((3S,5R or 3R,5S)-3-(5-amino-9-fluoro-7-methoxy-[1,2,4]fltriazolo[1,5-c]quinazolin-2-yl)-5-fluoropiperidin-1-yl)-3-methyl-1H-pyrazol-1-yl)-2-methylpropan-2-ol] | 35.6 nM |  |  | 43% Inh.
9 | COc1cc(F)cc2c1nc(N)n1nc(C3CC(F)CN(c4cnn(CC5(O)CCC5)c4)C3)nc21 (single isomer, unassigned) [Example 73, 1-(4-((3S,5R or 3R,5S)-3-(5-amino-9-fluoro-7-methoxy-[1,2,4]triazolo[1,5-c]quinazolin-2-yl)-5-fluoropiperidin-1-yl)-1H-pyrazol-1-yl)methyl)cyclobutan-1-ol] | 436 nM | 5120 nM |  | 

Further compounds by falling IC50 [1], results first:

Row | IC50 [1] | IC50 [2] | A2A binding % Inh. @ 1000 nM ([1]; @ 1000 nM) | A2B binding % Inh. @ 10000 nM [2] | SMILES
10 | 2.6 nM | 561 nM |  |  | COc1cc(F)cc2c1nc(N)n1nc([C@H]3C[C@@H](F)CN(c4cnn(CC(C)(C)O)c4)C3)nc21 (single isomer, unassigned) [Example 69, 1-(4-((3S,5R or 3R,5S)-3-(5-amino-9-fluoro-7-methoxy-[1,2,4]triazolo[1,5-c]quinazolin-2-yl)-5-fluoropiperidin-1-yl)-1H-pyrazol-1-yl)-2-methylpropan-2-ol]
11 | 2 nM | 484 nM |  |  | COc1cc(F)cc2c1nc(N)n1nc(C3CC(F)CN(c4cnn(CC5(O)CCC5)c4)C3)nc21 (single isomer, unassigned) [Example 72, 1-(4-((3R,5S or 3S,5R)-3-(5-amino-9-fluoro-7-methoxy-[1,2,4]triazolo[1,5-c]quinazolin-2-yl)-5-fluoropiperidin-1-yl)-1H-pyrazol-1-yl)methyl)cyclobutan-1-ol]
12 | 1.8 nM | 846 nM |  |  | COc1cc2nc(N)n3nc(C4CC(F)CN(c5cnn(C6CCOCC6)c5)C4)nc3c2cc1F (single isomer, unassigned) [Example 56, 9-fluoro-2-((3R,5S or 3S,5R)-5-fluoro-1-(1-(tetrahydro-2H-pyran-4-yl)-1H-pyrazol-4-yl)piperidin-3-yl)-8-methoxy-[1,2,4]triazolo[1,5-c]quinazolin-5-amine]
13 | 1.2 nM | 228 nM |  |  | COc1cc2nc(N)n3nc([C@@H]4CCCN(c5ncn(C(C)C(C)(C)O)n5)C4)nc3c2cc1F (single isomer, unassigned) [Example 65, (S or R)-3-(3-((R)-3-(5-amino-9-fluoro-8-methoxy-[1,2,4]triazolo[1,5-c]quinazolin-2-yl)piperidin-1-yl)-1H-1,2,4-triazolo-1-yl)-2-methylbutan-2-ol]
14 | 1 nM | 555 nM |  |  | COc1cc2nc(N)n3nc([C@@H]4CCCN(c5ncn(C(C)C(C)(C)O)n5)C4)nc3c2cc1F (single isomer, unassigned) [Example 64, (R or S)-3-(3-((R)-3-(5-amino-9-fluoro-8-methoxy-[1,2,4]triazolo[1,5-c]quinazolin-2-yl)piperidin-1-yl)-1H-1,2,4-triazolo-1-yl)-2-methylbutan-2-ol]
15 | 0.6 nM | 957 nM |  |  | COc1cc2nc(N)n3nc(C4CN(c5cnn(CC(C)(C)O)c5)CCC4C)nc3c2cc1F (single isomer, unassigned) [Example 66, 1-(4-((3S or 3R,4S or 4R)-3-(5-amino-9-fluoro-8-methoxy-[1,2,4]triazolo[1,5-c]quinazolin-2-yl)-4-methylpiperidin-1-yl)-1H-pyrazol-1-yl)-2-methylpropan-2-ol]
16 | 0.6 nM | 786 nM |  |  | COc1cc(F)cc2c1nc(N)n1nc(C3CC(F)CN(c4cn(CC(C)(C)O)nc4C)C3)nc21 (single isomer, unassigned) [Example 70, 1-(4-((3R,5S or 3S,5R)-3-(5-amino-9-fluoro-7-methoxy-[1,2,4]triazolo[1,5-c]quinazolin-2-yl)-5-fluoropiperidin-1-yl)-3-methyl-1H-pyrazol-1-yl)-2-methylpropan-2-ol]
